Assay results taken from patent US7384911B2, “Peptides having antimicrobial properties and compositions containing them, notably for the preservation of foodstuffs” (priority 2002, dated 2008).
Residues, ends and D or L forms follow the SMILES beside them.

How the values were obtained:
[1] = test system: Aerococcus viridans; format: cell-based; conditions: interval [a]-[b], tested spheniscin-2 0.2-100 μM, MSI-94 0.2-10 μM
Protocol: (§1) The bacteria to be tested were suspended in a suitable nutritive medium of the “poor broth” type corresponding to a solution of bactotryptone at 10 g/l with the addition of NaCl 5 g/l in ultrapure water.
(§2) Antimicrobial activities were detected by a growth inhibition test in microtitration plates (Hétru and Bulet, 1997). One deposited […] of each fraction collected in mictrotitration plates in the presence of 90 μl of culture medium containing the microorganisms (at a final concentration equivalent to 1 mDO at 600 nm).
(§3) For the bacteria and the yeast, incubation was performed at 30° C. for 12-24 h under agitation. The growth of the microorganisms was measured by monitoring the absorbance at 600 nm by means of a spectrophotometer reader of microtitration plates.
(§4) The antimicrobial activities expressed in minimal inhibitory concentration (MIC) of spheniscin 2 (concentrations comprised between 0.2 μM and 100 μM) were determined against bacteria, yeasts and fungi using a growth inhibition test in liquid medium in microtitration plates (for the detailed protocol see example 2.4 as well as Hétru and Bulet, 1997).
(§5) The minimal growth inhibitory concentration (MIC) corresponds to the interval [a]-[b] in which [a] is the strongest concentration tested for which the microorganism grows and [b] is the weakest concentration tested starting at which there is 100% inhibition of growth of the microorganism (Casteels and Tempst, 1994). The control peptides were MSI-94 (a peptide of the mangainin family stemming from the skin of the batrachian Xenopus laevis and presenting a broad spectrum of antimicrobial activity; Maloy and Kari, 1995) for testing against the bacteria and yeasts; and thanatin (an antifungal peptide stemming from the insect Podisus maculiventris; Fehlbaum et al., 1996) for testing against the filamentous fungi.

[2] = test system: B. megaterium; format: cell-based; conditions: interval [a]-[b], tested spheniscin-2 0.2-100 μM, MSI-94 0.2-10 μM
Protocol: as §1, §2, §3, §4, §5

[3] = test system: Bacillus subtilis; format: cell-based; conditions: interval [a]-[b], tested spheniscin-2 0.2-100 μM, MSI-94 0.2-10 μM
Protocol: as §1, §2, §3, §4, §5

[4] = test system: Escherichia coli SBS 363; format: cell-based; conditions: interval [a]-[b], tested spheniscin-2 0.2-100 μM, MSI-94 0.2-10 μM
Protocol: as §1, §2, §3, §4, §5

[5] = test system: Klebsiella pneumoniae; format: cell-based; conditions: interval [a]-[b], tested spheniscin-2 0.2-100 μM, MSI-94 0.2-10 μM
Protocol: as §1, §2, §3, §4, §5

[6] = test system: Listeria monocytogenes; format: cell-based; conditions: interval [a]-[b], tested spheniscin-2 0.2-100 μM, MSI-94 0.2-10 μM
Protocol: as §1, §2, §3, §4, §5

[7] = test system: Micrococcus luteus; format: cell-based; conditions: interval [a]-[b], tested spheniscin-2 0.2-100 μM, MSI-94 0.2-10 μM
Protocol: as §1, §2, §3, §4, §5

[8] = test system: Nocardia asteroides; format: cell-based; conditions: interval [a]-[b], tested spheniscin-2 0.2-100 μM, MSI-94 0.2-10 μM
Protocol: as §1, §2, §3, §4, §5

[9] = test system: Pseudomonas aeruginosa ATCC 82118; format: cell-based; conditions: interval [a]-[b], tested spheniscin-2 0.2-100 μM, MSI-94 0.2-10 μM
Protocol: as §1, §2, §3, §4, §5

[10] = test system: S. haemolyticus; format: cell-based; conditions: interval [a]-[b], tested spheniscin-2 0.2-100 μM, MSI-94 0.2-10 μM
Protocol: as §1, §2, §3, §4, §5

[11] = test system: Salmonella typhimurium; format: cell-based; conditions: interval [a]-[b], tested spheniscin-2 0.2-100 μM, MSI-94 0.2-10 μM
Protocol: as §1, §2, §3, §4, §5

[12] = test system: Staphylococcus aureus; format: cell-based; conditions: interval [a]-[b], tested spheniscin-2 0.2-100 μM, MSI-94 0.2-10 μM
Protocol: as §1, §2, §3, §4, §5

[13] = test system: B. cereus ATCC 11778; format: cell-based, Bacillus cereus; conditions: interval [a]-[b], tested spheniscin-2 0.2-100 μM, MSI-94 0.2-10 μM
Protocol: as §1, §2, §3
as §4, with “1997). […]” for “1997).”

[14] = test system: S. saprophyticus; format: cell-based, Staphylococcus saprophyticus; conditions: interval [a]-[b], tested spheniscin-2 0.2-100 μM, MSI-94 0.2-10 μM
Protocol: as §1, §2, §3
as §4, with “1997). […]” for “1997).”

[15] = test system: E. coli 1106; format: cell-based, Escherichia coli; conditions: interval [a]-[b], tested spheniscin-2 0.2-100 μM, MSI-94 0.2-10 μM
Protocol: as §1, §2, §3
as §4, with “1997). […]” for “1997).”

[16] = test system: V. anguillarum ATCC 19264; test: MIC, growth inhibition test in liquid medium in microtitration plates; format: cell-based; conditions: interval [a]-[b], tested spheniscin-2 0.2-100 μM
Protocol: as §1, §2, §3
as §4, with “1997). […]” for “1997).”

[17] = test system: Vibrio metshnikovii NCTC 8483; test: as above; format: cell-based; conditions: interval [a]-[b], tested spheniscin-2 0.2-100 μM
Protocol: as §1, §2, §3
as §4, with “1997). […]” for “1997).”

[18] = test system: C. tropicalis; format: cell-based; conditions: interval [a]-[b], tested spheniscin-2 0.2-100 μM, MSI-94 0.2-10 μM
Protocol: (§6) The yeast strain C. albicans to be tested was incubated in a suitable culture medium of the “Sabouraud” type.
as §2, §3, §4
(§7) The minimal growth inhibitory concentration (MIC) corresponds to the interval [a]-[b] in which [a] is the strongest concentration tested for which the microorganism grows and [b] is the weakest concentration tested starting at which there is 100% inhibition of growth of the microorganism (Casteels and Tempst, 1994). […]

[19] = test system: Candida glabrata; format: cell-based; conditions: tested spheniscin-2 0.2-100 μM, MSI-94 0.2-10 μM, ND = activity not detected in range tested
Protocol: as §6, §2, §3, §4, §7

[20] = test system: C. albicans IHEM 8060; format: cell-based, Candida albicans; conditions: interval [a]-[b], tested spheniscin-2 0.2-100 μM, MSI-94 0.2-10 μM
Protocol: as §6, §2, §3, §4, §7

[21] = test system: Aspergillus fumigatus; format: cell-based; conditions: interval [a]-[b], tested spheniscin-2 0.2-100 μM, thanatin 0.4-41.1 μM
Protocol: (§8) The spores of the fungus N. crassa to be tested were suspended in a suitable culture medium of the “potato infusion—glucose” type. Preference was given to the use of 12 g of potato dextrose broth medium (1/2 PDB, Difco) per 1 liter of demineralized water. Two antibiotics were added to the culture medium: cefotaxime (final concentration at 100 μg/ml) and tetracycline (final concentration at 10 μg/ml).
as §2
(§9) For the filamentous fungi, the incubation was performed at 37° C. in a humid atmosphere for 48 hours.
as §4, with “1997). […]” for “1997).”

[22] = test system: Neurospora crassa; format: cell-based; conditions: interval [a]-[b], tested spheniscin-2 0.2-100 μM, thanatin 0.4-41.1 μM
Protocol: as §8, §2, §9
as §4, with “1997). […]” for “1997).”

Compound: CC[C@H](C)[C@@H]1NC(=O)[C@@H]2CCCN2C(=O)[C@H]([C@@H](C)CC)NC(=O)[C@H](CO)NC(=O)[C@@H]2CCCN2C(=O)[C@H](Cc2ccccc2)NC(=O)[C@H](CCCNC(=N)N)NC(=O)[C@@H]2CSSC[C@@H](C(=O)N[C@@H](CCCNC(=N)N)C(=O)N[C@@H](CCCNC(=N)N)C(=O)N[C@H](C(=O)N[C@@H](Cc3c[nH]c4ccccc34)C(=O)O)C(C)C)NC(=O)[C@@H]3CSSC[C@H](NC(=O)[C@H](CC(C)C)NC(=O)CNC(=O)[C@H](Cc4ccccc4)NC(=O)[C@@H](N)CO)C(=O)N[C@@H](CCCNC(=N)N)C(=O)N[C@@H](CC(C)C)C(=O)N[C@@H](CCCNC(=N)N)C(=O)N[C@@H](CCCNC(=N)N)C(=O)NCC(=O)N[C@@H](Cc4ccccc4)C(=O)N[C@@H](CSSC[C@H](NC(=O)[C@H](CCCNC(=N)N)NC(=O)CNC1=O)C(=O)N[C@@H](CO)C(=O)N[C@@H](CCCNC(=N)N)C(=O)N[C@@H](Cc1ccccc1)C(=O)N[C@@H](C(C)C)C(=O)N[C@@H](CCC(N)=O)C(=O)N3)C(=O)N[C@@H](C)C(=O)N[C@@H](CCCNC(=N)N)C(=O)NCC(=O)N[C@@H](CCCNC(=N)N)C(=O)N2 [spheniscin-2] (HELM PEPTIDE1{S.F.G.L.C.R.L.R.R.G.F.C.A.R.G.R.C.R.F.P.S.I.P.I.G.R.C.S.R.F.V.Q.C.C.R.R.V.W}$PEPTIDE1,PEPTIDE1,5:R3-33:R3|PEPTIDE1,PEPTIDE1,12:R3-27:R3|PEPTIDE1,PEPTIDE1,17:R3-34:R3$$$V2.0; N-terminus and C-terminus assumed)
- MIC [1]: 0.4 to 0.8 µM
- MIC [2]: 0.4 to 0.8 µM
- MIC [3]: 0.8 to 1.5 µM
- MIC [4]: 0.8 to 1.5 µM
- MIC [5]: 50 to 100 µM
- MIC [6]: 6 to 12 µM
- MIC [7]: 1.5 to 3 µM
- MIC [8]: 0.8 to 1.5 µM
- MIC [9]: 6 to 12 µM
- MIC [10]: 1.5 to 3 µM
- MIC [11]: 6 to 12 µM
- MIC [12]: 1.5 to 3 µM
- MIC [13]: 3 to 6 µM
- MIC [14]: 1.5 to 3 µM
- MIC [15]: 1.5 to 3 µM
- MIC [16]: 25 to 50 µM
- MIC [17]: 25 to 50 µM
- MIC [18]: 1.5 to 3 µM
- MIC [19]: >100 µM
- MIC [20]: 50 to 100 µM
- MIC [21]: 3 to 6 µM
- MIC [22]: 3 to 6 µM
